Like-named read-outs stand apart in the source and are kept apart here.
Tested on: MIA PaCa-2 cells
Assay: Bru-seq analysis for nascent RNA synthesis (log2FC of genes, GSEA gene sets)
Assay type: cell-based, human
[1] = ACEVEDO_LIVER_CANCER_WITH_H3K27ME3_UP, C2, downregulated, 4 h
[2] = ACTWSNACTNY_UNKNOWN, TFBT, upregulated, 4 h
[3] = AP1_Q4_01, TFBT, upregulated, 4 h
[4] = BACH1_01, TFBT, upregulated, 4 h
[5] = BACH2_01, TFBT, upregulated, 4 h
[6] = BEGUM_TARGETS_OF_PAX3_FOXO1_FUSION_UP, C2, downregulated, 4 h
[7] = CCCNNNNNNAAGWT_UNKNOWN, TFBT, upregulated, 4 h
[8] = DACOSTA_UV_RESPONSE_VIA_ERCC3_COMMON_DN, C2, downregulated, 4 h
[9] = DACOSTA_UV_RESPONSE_VIA_ERCC3_XPCS_DN, C2, downregulated, 4 h
[10] = DAZARD_UV_RESPONSE_CLUSTER_G6, C2, downregulated, 4 h
[11] = DE_YY1_TARGETS_DN, C2, downregulated, 4 h
[12] = DOANE_BREAST_CANCER_CLASSES_DN, C2, downregulated, 4 h
[13] = EVI1_05, TFBT, upregulated, 4 h
[14] = GABRIELY_MIR21_TARGETS, C2, downregulated, 4 h
[15] = GATGKMRGCG_UNKNOWN, TFBT, upregulated, 4 h
[16] = GCCNNNWTAAR_UNKNOWN, TFBT, upregulated, 4 h
[17] = GGAANCGGAANY_UNKNOWN, TFBT, upregulated, 4 h
[18] = GGCNRNWCTTYS_UNKNOWN, TFBT, upregulated, 4 h
[19] = GGGYGTGNY_UNKNOWN, TFBT, upregulated, 4 h
[20] = GO_ALCOHOL_BIOSYNTHETIC_PROCESS, upregulated, 4 h
[21] = GO_ALCOHOL_METABOLIC_PROCESS, upregulated, 4 h
[22] = GO_CELLULAR_RESPONSE_TO_TOPOLOGICALLY_INCORRECT_PROTEIN, upregulated, 4 h
[23] = GO_CHROMATIN_ASSEMBLY_OR_DISASSEMBLY, upregulated, 4 h
[24] = GO_CHROMATIN_SILENCING_AT_RDNA, upregulated, 4 h
[25] = GO_CYTOSOLIC_LARGE_RIBOSOMAL_SUBUNIT, upregulated, 4 h
[26] = GO_CYTOSOLIC_RIBOSOME, upregulated, 4 h
[27] = GO_DNA_PACKAGING, upregulated, 4 h
[28] = GO_DNA_PACKAGING_COMPLEX, upregulated, 4 h
[29] = GO_HEXOSE_METABOLIC_PROCESS, upregulated, 4 h
[30] = GO_INTRINSIC_COMPONENT_OF_ENDOPLASMIC_RETICULUM_MEMBRANE, upregulated, 4 h
[31] = GO_IRE1_MEDIATED_UNFOLDED_PROTEIN_RESPONSE, upregulated, 4 h
[32] = GO_NEGATIVE_REGULATION_OF_RESPONSE_TO_OXIDATIVE_STRESS, upregulated, 4 h

Cc1cc(NC(=O)c2cnc(N3CCNCC3)cn2)c2ncccc2c1 [J28, N-(6-methylquinolin-8-yl)-5-(piperazin-1-yl)pyrazine-2-carboxamide]
ES: 0.474 | KEGG gene sets SYSTEMIC_LUPUS_ERYTHEMATOSUS and LYSOSOME: upregulation | NES: 1.626 | cholesterol biosynthesis pathway (curated gene sets): enrichment | expression of genes like INSIG1, DHCR7, MVK and FASN: Overexpression | synthesis of PCYT2, DOLK and HIST1H3B RNAs: upregulated in a dose-dependent manner | expression of ZNF816, IFT80, CACNG8 and GPR135 (4 h): significant decrease | Cell Cycle, Mitotic pathway (4 h of treatment): upregulated | log2FC (AC005614.2, downregulated noncoding gene, 4 h): −1.01 | log2FC (AC005726.2, downregulated protein-coding gene, 4 h): −0.99 | log2FC (AC006141.1, downregulated noncoding gene, 4 h): −1.18 | log2FC (AC007038.2, downregulated noncoding gene, 4 h): −1.08 | log2FC (AC007099.1, downregulated noncoding gene, 4 h): −1.04 | log2FC (AC007390.2, downregulated noncoding gene, 4 h): −1.54 | log2FC (AC007619.1, downregulated noncoding gene, 4 h): −1.30 | log2FC (AC009690.1, downregulated protein-coding gene, 4 h): −0.83 | log2FC (AC016949.1, downregulated noncoding gene, 4 h): −1.18 | log2FC (AC022335.1, downregulated protein-coding gene, 4 h): −0.86 | log2FC (AC022415.1, downregulated noncoding gene, 4 h): −1.20 | log2FC (AC040934.1, downregulated noncoding gene, 4 h): −0.97 | log2FC (AC046130.2, downregulated noncoding gene, 4 h): −1.16 | log2FC (AC091152.2, downregulated noncoding gene, 4 h): −1.18 | log2FC (AC135983.2, downregulated noncoding gene, 4 h): −1.16 | log2FC (AC244131.2, downregulated noncoding gene, 4 h): −1.22 | ES [1]: −0.444 | NES [1]: −1.897 | ES [2]: 0.432 | NES [2]: 1.640 | log2FC (ADNP-AS1, downregulated noncoding gene, 4 h): −1.07 | log2FC (AKAP5, downregulated protein-coding gene, 4 h): −0.90 | log2FC (AL596247.1, downregulated noncoding gene, 4 h): −2.37 | ES [3]: 0.371 | NES [3]: 1.550 | log2FC (AP001992.1, downregulated noncoding gene, 4 h): −1.36 | ES [4]: 0.419 | NES [4]: 1.762 | ES [5]: 0.390 | NES [5]: 1.654 | ES [6]: −0.621 | NES [6]: −2.034 | log2FC (CACNG8, downregulated protein-coding gene, 4 h): −1.10 | ES [7]: 0.409 | NES [7]: 1.550 | log2FC (CCDC190, downregulated protein-coding gene, 4 h): −0.91 | log2FC (CD274, downregulated protein-coding gene, 4 h): −0.90 | log2FC (CHML, downregulated protein-coding gene, 4 h): −0.94 | log2FC (CLEC2D, downregulated protein-coding gene, 4 h): −0.84 | ES [8]: −0.448 | NES [8]: −2.492 | ES [9]: −0.520 | NES [9]: −2.258 | ES [10]: −0.434 | NES [10]: −2.065 | ES [11]: −0.471 | NES [11]: −2.072 | ES [12]: −0.562 | NES [12]: −1.907 | ES [13]: 0.421 | NES [13]: 1.596 | log2FC (FERMT1, downregulated protein-coding gene, 4 h): −0.88 | log2FC (FP671120.1, downregulated noncoding gene, 4 h): −2.35 | ES [14]: −0.470 | NES [14]: −2.457 | ES [15]: 0.462 | NES [15]: 1.697 | ES [16]: 0.442 | NES [16]: 1.702 | log2FC (GCLM, downregulated protein-coding gene, 4 h): −0.85 | log2FC (GCNA, downregulated protein-coding gene, 4 h): −0.89 | ES [17]: 0.421 | NES [17]: 1.695 | ES [18]: 0.424 | NES [18]: 1.583 | ES [19]: 0.361 | NES [19]: 1.708 | ES [20]: 0.573 | NES [20]: 2.162 | ES [21]: 0.457 | NES [21]: 2.022 | ES [22]: 0.504 | NES [22]: 2.013 | ES [23]: 0.470 | NES [23]: 1.952 | ES [24]: 0.713 | NES [24]: 2.078 | ES [25]: 0.536 | NES [25]: 1.982 | ES [26]: 0.516 | NES [26]: 2.082 | ES [27]: 0.468 | NES [27]: 1.976 | ES [28]: 0.727 | NES [28]: 2.600 | ES [29]: 0.500 | NES [29]: 1.992 | ES [30]: 0.508 | NES [30]: 2.000 | ES [31]: 0.556 | NES [31]: 2.001 | ES [32]: 0.743 | NES [32]: 2.162

From US20220081412A1, “QUINOLINYL-PYRAZINE-CARBOXAMIDE COMPOUNDS AND USES THEREOF” (The Regents of the University of Michigan, priority 2018, published 2022)
